Here are results for seven compounds from patent US7384757B2 (Bristol-Myers Squibb Company, priority 2004, dated 2008).

In one data set the test system is ACC and FAS. Briefly: ACC/FAS coupled SPA, effect of DMSO and purification reagents. Format: biochemical, rat. As to conditions: for effect on the enzyme reaction: ACC/FAS coupled SPA, FIG. 12. How it is done:
(§1) The [^3H]-acetyl CoA mix in the final reaction was 20 μM with 0.25 μCi per assay (specific activity of 250 μCi/μmol).
Compound Dilution: Compounds were dissolved in 100% DMSO to obtain 10 mM stock solution. A serial dilution of the compounds in 100% DMSO was made first. Then the compounds were diluted 1:33.3 in buffer to obtain 10× compound solution in 3% DMSO. From this intermediate dilution, a further 10× dilution was made in the assay, resulting 0.3% final DMSO concentration in the assay.
For screening in drug discovery, compounds are routinely dissolved in 100% DMSO and then further diluted to 1% or lower DMSO in the final assay. The effect of DMSO on the ACC/FAS coupled assay was studied. […] At 1% DMSO, the total signal decreased 25% and the S/B was reduced from 15 to 12 with a greater inhibition observed at higher concentrations. Therefore, it may be desirable to keep the final DMSO concentrations in the assay below 0.3%, and not to exceed 1%.
Buffers containing sucrose, glycerol and polyethylene glycol (PEG) were used in the purification of ACC and FAS. In addition, the purified enzymes were stored in buffers containing 20% glycerol to increase long-term stability. In view of this, the effects of glycerol, sucrose and PEG on the enzyme activities were studied with the ACC/FAS coupled SPA.

The target of data set [1] is T1, rat acetyl CoA carboxylase 1 (rACC) (Rattus norvegicus, UniProt P11497).
T1 construct: from tissue; host or cells: rat liver (rats fasted 36 h, then fed a fat-free carbohydrate diet for 48 h)
Nature of the data set: ACC/FAS coupled scintillation proximity assay, reagent titrations (Km, Kact). Format: biochemical. The conditions noted are these: other reagents saturating, acetyl CoA 20 μM, 37° C. How it is done: The sequence of addition of the solution mixtures into each well of a custom 384-well phospholipid coated FLASHPLATE™ was as follows:
Step 1: Add 35 μl of enzyme mix in assay buffer.
Step 2: Add 5 μl of 3% DMSO or 10× compound in 3% DMSO.
Step 3: Incubate at room temperature for 10 min.
Step 5: Incubate the plate at 37° C. for 2 hours.
Step 6: Count the plate in a TOPCOUNT™ NXT for 2 min/well.
A general note: Scintillation proximity formats need no separation of bound from free tracer.

Data set [2] has as its target T2, rat fatty acid synthase (rFAS) (Rattus norvegicus, UniProt P12785).
T2 construct: from tissue
Briefly: ACC/FAS coupled SPA, dependence of FAS activity on NADPH. Format: biochemical. The conditions noted are these: FAS cofactor, varied in the ACC/FAS coupled assay. How it is done:
as §1
The Km values for these FAS substrates can be determined independently. In the present study, the dependence of FAS activity on NADPH was determined by varying the cofactor concentration (FIG. 10). […] In this study, NADPH was maintained at saturating concentration of 100 μM.

The subject of data set [3] is CC(=O)SCCNC(=O)CCNC(=O)[C@H](O)C(C)(C)COP(=O)(O)OP(=O)(O)OC[C@H]1O[C@@H](n2cnc3c(N)ncnc32)[C@H](O)[C@@H]1OP(=O)(O)O. Briefly: purified protein, by the assay type. As to conditions: other: from saturation curve, other reagents saturating, 37° C., pH 7.6.

Usually Km stands for the substrate concentration at which the rate is half of its maximum.

T2 sequence (P12785 whole entry): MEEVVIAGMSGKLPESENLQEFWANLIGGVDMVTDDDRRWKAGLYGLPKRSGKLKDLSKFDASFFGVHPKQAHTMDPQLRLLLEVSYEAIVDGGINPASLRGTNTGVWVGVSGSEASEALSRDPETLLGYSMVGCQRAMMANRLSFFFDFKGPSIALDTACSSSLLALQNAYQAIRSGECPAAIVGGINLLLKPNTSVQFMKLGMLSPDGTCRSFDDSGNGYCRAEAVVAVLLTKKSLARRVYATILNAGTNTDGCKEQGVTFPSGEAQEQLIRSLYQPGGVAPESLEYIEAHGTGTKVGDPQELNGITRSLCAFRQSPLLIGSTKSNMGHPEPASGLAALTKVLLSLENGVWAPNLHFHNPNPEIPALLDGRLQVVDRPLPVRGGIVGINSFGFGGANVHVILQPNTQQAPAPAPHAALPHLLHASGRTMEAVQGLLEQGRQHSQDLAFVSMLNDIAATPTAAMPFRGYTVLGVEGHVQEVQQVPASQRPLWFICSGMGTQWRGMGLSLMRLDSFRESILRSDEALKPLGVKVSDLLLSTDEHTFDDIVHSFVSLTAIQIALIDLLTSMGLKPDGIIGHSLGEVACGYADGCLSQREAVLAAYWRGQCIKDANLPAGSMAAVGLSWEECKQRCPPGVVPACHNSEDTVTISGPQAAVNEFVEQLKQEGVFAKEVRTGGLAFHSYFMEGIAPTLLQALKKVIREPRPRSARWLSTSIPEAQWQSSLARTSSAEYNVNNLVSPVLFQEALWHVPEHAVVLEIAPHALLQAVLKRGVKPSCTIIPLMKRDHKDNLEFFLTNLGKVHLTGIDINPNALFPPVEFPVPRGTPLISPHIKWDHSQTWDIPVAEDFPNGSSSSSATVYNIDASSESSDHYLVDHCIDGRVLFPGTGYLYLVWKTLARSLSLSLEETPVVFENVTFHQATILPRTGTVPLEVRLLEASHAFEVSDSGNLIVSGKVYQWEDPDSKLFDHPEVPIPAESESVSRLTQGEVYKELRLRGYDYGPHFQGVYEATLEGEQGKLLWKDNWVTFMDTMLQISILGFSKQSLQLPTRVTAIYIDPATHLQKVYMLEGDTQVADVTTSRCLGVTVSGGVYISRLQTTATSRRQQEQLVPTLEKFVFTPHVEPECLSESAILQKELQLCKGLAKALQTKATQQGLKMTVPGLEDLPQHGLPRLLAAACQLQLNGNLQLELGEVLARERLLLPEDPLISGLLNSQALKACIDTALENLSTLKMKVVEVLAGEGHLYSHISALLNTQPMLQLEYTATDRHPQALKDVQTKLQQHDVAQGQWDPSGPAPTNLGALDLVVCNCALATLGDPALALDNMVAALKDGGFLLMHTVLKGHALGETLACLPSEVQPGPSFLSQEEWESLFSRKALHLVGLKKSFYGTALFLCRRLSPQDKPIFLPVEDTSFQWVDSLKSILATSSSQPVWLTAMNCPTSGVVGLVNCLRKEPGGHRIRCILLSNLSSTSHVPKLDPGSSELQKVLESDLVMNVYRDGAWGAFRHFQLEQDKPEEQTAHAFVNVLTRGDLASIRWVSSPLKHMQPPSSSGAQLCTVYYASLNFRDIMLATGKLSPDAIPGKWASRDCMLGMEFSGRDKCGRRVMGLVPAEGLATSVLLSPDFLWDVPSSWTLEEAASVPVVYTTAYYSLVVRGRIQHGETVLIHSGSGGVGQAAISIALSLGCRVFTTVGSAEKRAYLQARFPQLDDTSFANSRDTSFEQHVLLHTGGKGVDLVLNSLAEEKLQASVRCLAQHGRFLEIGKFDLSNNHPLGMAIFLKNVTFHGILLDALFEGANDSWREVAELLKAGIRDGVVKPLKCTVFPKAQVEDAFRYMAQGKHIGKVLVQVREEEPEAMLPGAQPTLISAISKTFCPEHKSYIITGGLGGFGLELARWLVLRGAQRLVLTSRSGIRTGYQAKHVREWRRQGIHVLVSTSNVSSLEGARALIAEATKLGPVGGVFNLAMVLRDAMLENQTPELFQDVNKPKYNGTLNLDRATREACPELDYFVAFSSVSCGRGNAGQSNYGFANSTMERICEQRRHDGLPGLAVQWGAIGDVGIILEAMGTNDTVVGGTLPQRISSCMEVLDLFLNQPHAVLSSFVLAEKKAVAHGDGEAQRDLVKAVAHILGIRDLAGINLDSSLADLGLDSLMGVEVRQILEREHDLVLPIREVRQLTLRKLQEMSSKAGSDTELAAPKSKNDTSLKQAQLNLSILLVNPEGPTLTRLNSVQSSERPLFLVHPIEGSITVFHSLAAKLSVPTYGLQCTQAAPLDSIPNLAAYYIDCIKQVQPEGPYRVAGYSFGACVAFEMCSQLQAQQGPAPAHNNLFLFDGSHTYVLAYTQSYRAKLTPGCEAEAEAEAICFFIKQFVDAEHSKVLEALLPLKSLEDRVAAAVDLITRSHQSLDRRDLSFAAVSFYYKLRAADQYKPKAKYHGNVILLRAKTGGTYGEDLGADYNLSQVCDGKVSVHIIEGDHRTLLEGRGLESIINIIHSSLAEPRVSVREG

Regarding `C[S+](C)[O-]` [DMSO], in the data set with ACC and FAS (DMSO concentrations up to 0.3%), the “effect on the activity of FAS or ACC” value was “no significant effect”. In addition, the “decrease of total signal” value in the data set with ACC and FAS (at 1% DMSO) was 25%.

On to `[Cl-].[Cl-].[Mg+2]` [MgCl2], for which, in data set [1], the “Kact (half-maximal saturation value)” value was 6.3 mM.

As to `NC(=O)C1=CN([C@@H]2O[C@H](COP(=O)(O)OP(=O)(O)OC[C@H]3O[C@@H](n4cnc5c(N)ncnc54)[C@H](OP(=O)(O)O)[C@@H]3O)[C@@H](O)[C@H]2O)C=CC1` [NADPH], the Km in data set [2] came out at 28 µM.

In the case of `O=C([O-])O.[Na+]` [NaHCO3], in data set [1] (from saturation curve), the Km is 1700 µM.

As for `OCC(O)CO` [glycerol], the “effect on the enzyme reaction” value in the data set on ACC and FAS is listed as “none of these reagents have any significant effect”.

On to `OC[C@H]1O[C@@](CO)(O[C@H]2O[C@H](CO)[C@@H](O)[C@H](O)[C@H]2O)[C@@H](O)[C@@H]1O` [sucrose], for which, in the data set with ACC and FAS, the “effect on the enzyme reaction” value is “none of these reagents have any significant effect”.

For “rat acetyl CoA carboxylase 1 (rACC) (Rattus norvegicus)”, the Km in data set [3] was 47 µM.
